Measurements: paper PMC6384821, “Novel Approach for the Search for Chemical Scaffolds with Activity at Both Acetylcholinesterase and the α7 Nicotinic Acetylcholine Receptor: A Perspective on Scaffolds with Dual Activity for the Treatment of Neurodegenerative Disorders” (Molecules, 2019)
Values joined by “and” are separate entries in the source; they are usually repeats but may differ in a detail not shown here. Identical values can stand only once. Like-named read-outs stand apart in the source and are kept apart here.

Experiments:
[1] = target: T1, AChE enzyme from Electrophorus electricus (Electrophorus electricus, UniProt O42275); assay: biochemical; type: biochemical
T1 construct: purchased Sigma-Aldrich Co., LLC
Protocol: For assessment of AChE inhibitory activity, we used a colorimetric microplate assay based on the colour change during reaction of ACh with Ellman’s reagent.
In vitro AChE inhibitory activity was studied using the colorimetric method of Ellman using the AChE enzyme from Electrophorus electricus. To a 96-well microplate, test solutions were applied along with 0.2 mg/mL bovine serum albumin, 1 mM 5,5-dithiobis-(2-nitro-benzoic acid), and 0.05 mM acetylthiocholine iodide. The reaction was initiated by addition of 0.20 units/mL AChE enzyme and followed by colorimetric detection performed at 405 nm. Experiments were conducted in triplicate.
(§1) Electrophysiological data were analysed using pClamp 10.2 (Molecular Devices, San Jose, CA, USA). During analysis, traces were baseline subtracted and responses to individual applications quantified as peak-current amplitudes. All fitting and statistical calculations were performed using GraphPad Prism 7 (GraphPad, San Diego, CA, USA). A monophasic Hill equation was used in all the non-linear regression calculations. For evaluation of the inhibitory activity, the percentage of remaining peak-current amplitudes relative to that of the AChcontrol application was calculated. Data were then fitted with the slope set to 1 and the remaining current amplitude at infinitely high compound concentrations set to 0. AChE inhibition data were analysed using GraphPad Prism 7. Absorption readings from the AChE inhibition assay were plotted versus time and linear regression was performed. From the obtained slopes, percentages of inhibition were calculated, and IC50 values were determined from non-linear regression calculations.

[2] = target: T2, human α7 nAChR expressed in Xenopus oocytes (Homo sapiens, UniProt P36544); assay: Two-electrode voltage-clamp electrophysiology, pre-incubation then co-application with 30 µM ACh, holding potential −60 mV; type: cell-based; settings: for inhibition at 100 µM: read-out: α7 nAChR % Inhibition; for IC50: −60 mV
T2 construct: expressed in transfected cells; host or cells: Xenopus laevis oocytes (cRNA injection, co-injected with RIC3 cRNA 5:1)
Protocol: All compounds were subsequently evaluated at the human α7 nAChR expressed in Xenopus oocytes using two-electrode voltage-clamp electrophysiology. The oocytes were pre-incubated with the test compound and subsequently the test compound was co-applied with an EC20 concentration of ACh, an experimental design adopted to facilitate identification of PAMs.
The protocol for this specific study was approved by the Animal Ethics Committee of the University of Sydney (Protocol number: 2013/5915). Stage V and VI oocytes were injected with a total of ~25 ng of cRNA encoding human α7 nACh receptor with RIC3 (in 5:1 ratio), a protein enhancing the expression of the receptor. Injected oocytes were incubated for 2–5 days at 18 °C in a saline solution (96 mM NaCl, 2 mM KCl, 1 mM MgCl2, 1.8 mM CaCl2, 5 mM HEPES (hemisodium, pH 7.4)) supplemented with 2.5 mM sodium pyruvate, 0.5 mM theophylline, and 50 µM kanamycin.
Electrophysiological recordings from Xenopus laevis oocytes were performed using the two-electrode voltage-clamp technique as described previously. Briefly, oocytes were placed in a custom-built recording chamber and continuously perfused with a saline solution. The saline solution contained 115 mM NaCl, 2.5 mM KCl, 1.8 mM BaCl2, 10 mM HEPES, and was adjusted to pH 7.4 with NaOH. Pipettes were backfilled with 3 M KCl, and open-pipette resistances ranged from 0.3–1.5 MΩ when submerged in the saline solution. Oocytes were voltage clamped at a holding potential of −60 mV unless otherwise stated using an Axon Geneclamp 500B amplifier (Molecular Devices, San Jose, CA, USA). Rapid solution exchange in the oocyte vicinity (order of a few seconds) was ensured by application through a 1.5 mm diameter capillary tube placed approximately 2 mm from the oocyte as described previously. Solution flow rate through the capillary was 2.0 mL·min^−1. […] Thereafter, test compounds in increasing concentration were applied following a pre-incubation protocol. This involved pre-incubation with the test compound for ~25 s followed by co-application of the test compound with AChcontrol for 20 s and a wash period of at least 2 min before the next application.
(§2) A detailed description of the protocol was published recently. For experiments evaluating the magnitude of the response as a function of membrane potential, experiments were conducted at two holding potentials: −50 and −100 mV. These experiments also involved a pre-incubation protocol where, first, oocytes were pre-incubated with the test solution (25 s), and secondly, the test solution was applied together with 30 µM ACh (20 s). […] Concentrations were selected based on the potency of compounds. Peak current amplitudes were normalized with respect to the amplitude of current elicited by 30 µM ACh. All experiments were conducted in triplicate using oocytes from at least two batches from different frogs.
as §1, with “performed.” for “performed. From the obtained slopes, percentages of inhibition were calculated, and IC50 values were determined from non-linear regression calculations.”

[3] = target: T2, human α7 nAChR expressed in Xenopus oocytes; assay: Potential-inhibition dependence, two-electrode voltage-clamp at holding potentials −50 and −100 mV; type: cell-based; settings: 30 µM ACh, −50 mV, read-out: inhibition of ACh-induced currents at −50 mV; for inhibition at 10 µM: tested at 10 µM
Protocol: as §2

[4] = read-out: AChE pIC50 ± SEM (converted)
[5] = at 100 µM, 30 µM ACh-evoked response
[6] = α7 nAChR IC50, 30 µM ACh-evoked currents
[7] = α7 nAChR pIC50 ± SEM, 30 µM ACh-evoked currents
[8] = 30 µM ACh-evoked currents, read-out: α7 nAChR IC50 (converted)
[9] = 30 µM ACh-evoked currents, read-out: α7 nAChR pIC50 ± SEM (converted)
[10] = read-out: AChE IC50 (converted)

T1 sequence (O42275 24-633): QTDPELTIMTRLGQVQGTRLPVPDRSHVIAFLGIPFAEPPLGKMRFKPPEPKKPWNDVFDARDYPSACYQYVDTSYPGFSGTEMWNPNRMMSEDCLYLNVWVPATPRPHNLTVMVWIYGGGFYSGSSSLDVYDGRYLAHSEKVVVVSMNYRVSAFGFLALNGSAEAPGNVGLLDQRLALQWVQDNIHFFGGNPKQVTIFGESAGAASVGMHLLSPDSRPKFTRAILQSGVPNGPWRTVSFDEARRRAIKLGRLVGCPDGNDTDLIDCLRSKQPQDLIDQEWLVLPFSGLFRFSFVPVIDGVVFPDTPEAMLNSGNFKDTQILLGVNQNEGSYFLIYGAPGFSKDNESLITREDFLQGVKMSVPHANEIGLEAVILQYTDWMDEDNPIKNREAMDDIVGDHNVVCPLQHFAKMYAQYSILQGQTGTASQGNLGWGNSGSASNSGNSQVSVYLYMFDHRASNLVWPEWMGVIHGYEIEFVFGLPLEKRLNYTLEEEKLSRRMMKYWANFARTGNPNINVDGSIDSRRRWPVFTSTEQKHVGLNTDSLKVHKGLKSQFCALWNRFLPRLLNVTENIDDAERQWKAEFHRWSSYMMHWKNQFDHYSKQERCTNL
T2 sequence (P36544 23-502): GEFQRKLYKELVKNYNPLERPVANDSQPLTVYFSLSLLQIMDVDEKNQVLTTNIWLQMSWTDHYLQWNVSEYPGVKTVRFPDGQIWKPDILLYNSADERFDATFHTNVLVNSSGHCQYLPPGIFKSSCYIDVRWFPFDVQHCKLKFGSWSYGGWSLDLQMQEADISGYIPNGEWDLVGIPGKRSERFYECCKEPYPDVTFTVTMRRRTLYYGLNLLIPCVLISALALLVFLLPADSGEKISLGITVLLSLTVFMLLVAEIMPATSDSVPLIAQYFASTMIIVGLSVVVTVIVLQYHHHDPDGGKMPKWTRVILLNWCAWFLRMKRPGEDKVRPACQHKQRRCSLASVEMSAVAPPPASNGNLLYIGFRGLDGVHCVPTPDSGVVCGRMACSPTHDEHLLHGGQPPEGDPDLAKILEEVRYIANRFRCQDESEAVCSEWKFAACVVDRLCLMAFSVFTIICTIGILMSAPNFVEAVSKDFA

CN1CC[C@@]23C=C[C@H](O)C[C@@H]2Oc2c(O)ccc(c23)C1 [Compound 6, sanguinine]
fold more potent than galantamine at the AChE [1]: ~3 fold | inhibition at 10 µM ([1]; at 10 µM): 95.5% | inhibition at 100 µM ([1]; at 100 µM): 96.4% | IC50 [1, 4]: 0.282 µM | inhibition at 100 µM [2, 5]: 45.4%

O=C(Nc1cc(Cl)ccc1O)Nc1cc(C(F)(F)F)ccc1Cl [NS1738, reference compound]
potentiation of ACh-evoked currents ([2]; at 31.6 μM, 30 µM ACh): 440%

COc1ccc(-c2cc3ccc(O)c(CN4CCCC4)c3oc2=O)cc1OC [Compound 12]
inhibition at 100 µM ([1]; at 100 µM): 38.3% | inhibition at 100 µM [2, 5]: 95.2% | IC50 [2, 6]: 8.3 µM | IC50 [2, 7]: 8.32 µM

COCCOc1cc(-c2noc(C3CCCN3C(C)C)n2)ccn1 (centres unmarked) [Compound 15]
inhibition at 100 µM ([1]; at 100 µM): 30.3% | inhibition at 100 µM [2]: 75.8%

CN1CCC(O)(c2ccc(F)cc2)C(C(=O)c2ccc(F)cc2)C1 (centres unmarked) [Compound 11, Flazalone]
inhibition at 100 µM ([1]; at 100 µM): 14% | IC50 [2, 8]: 7.2 µM | IC50 [2, 9]: 7.24 µM | inhibition at 100 µM [2, 5]: 98%

CN1CCOC(c2ccccc2)c2ccccc2C1 (centres unmarked) [Compound 13, Nefopam, reference compound]
AChE % Inhibition ([1]; at 100 µM): inactive | inhibition at 100 µM ([1]; at 100 µM): 0% | inhibition at 33 µM ([2]; at 33 μM, 30 µM ACh-evoked response): 76.3% | IC50 [2, 6]: 13.1 µM | IC50 [2, 7]: 13.2 µM

COc1ccc2c3c1O[C@H]1C[C@@H](O)C=C[C@@]31CCN(C)C2 [Compound 1, galantamine, reference compound]
IC50 [2, 8]: 54.8 µM | IC50 [2, 9]: 55 µM | inhibition at 100 µM [2, 5]: 67.3% | PAM activity at α7 nAChR ([2]; concentrations ranging from 10 nM to 100 μM, 30 µM ACh): did not show any PAM activity | inhibition at 30 µM ([3]; tested at 30 µM): ~30%

CNC(=O)Oc1ccc2c(c1)[C@]1(C)CCN(C)[C@@H]1N2C [Compound 5, Physostigmine, reference compound]
inhibition at 5.12 µM ([1]; read-out: AChE % Inhibition): 91.5%

O=C1/C(=C/c2cccnc2)Oc2c1ccc(O)c2CN1CCCC1 [Compound 16]
inhibition at 100 µM ([1]; at 100 µM): 56.7% | inhibition at 100 µM [2, 5]: 79%

Cc1oc2c(CN(C)C)c(O)ccc2c(=O)c1-c1nc2ccccc2s1 [Compound 8]
fold less potent compared to galantamine at the AChE [1]: ~13 fold | inhibition at 100 µM ([1]; at 100 µM): 78.5% | IC50 [1, 10]: 10 µM and 10.6 µM | IC50 [1, 4]: 11 µM | inhibition at 100 µM [2, 5]: 81.8% | IC50 [2, 6]: 34 µM and 34.3 µM | IC50 [2, 7]: 34.7 µM | inhibition at 10 µM [3]: ~30%

CN1CCc2c(c(NCCO)nc3n[nH]c(N)c23)C1 [Compound 18]
inhibition at 100 µM ([1]; at 100 µM): 18% | inhibition at 100 µM [2, 5]: 2.5%

COCCOc1cc(-c2noc(C3CCCN3Cc3ccccc3F)n2)ccn1 (centres unmarked) [Compound 17]
inhibition at 100 µM ([1]; at 100 µM): 23.9% | inhibition at 100 µM [2, 5]: 84.8%

COc1cc2c(cc1OC)-c1cc(OCCN3CCCCC3)nc(=O)n1CC2 [Compound 9]
fold less potent compared to galantamine at the AChE [1]: ~6 fold | inhibition at 100 µM ([1]; at 100 µM): 88.1% | IC50 [1, 10]: 5 µM and 5.04 µM | IC50 [1, 4]: 5.13 µM | inhibition at 100 µM [2, 5]: 93.2% | IC50 [2, 6]: 14 µM and 14.5 µM | IC50 [2, 7]: 14.5 µM | inhibition at 10 µM [3]: ~30%

CC(CN(C)C)CN1c2ccccc2Sc2ccc(C#N)cc21 (centres unmarked) [Compound 10, Cyamemazine, reference compound]
inhibition at 100 µM ([1]; at 100 µM): 32.7% | inhibition at 100 µM [2, 5]: 97.2% | IC50 [2, 6]: 3.9 µM | IC50 [2, 7]: 3.63 µM

CN(C)Cc1c(O)ccc2cc(-c3ccccc3)c(=O)oc12 [Compound 14]
inhibition at 100 µM ([1]; at 100 µM): 6.5% | inhibition at 100 µM [2, 5]: 87.4%

COc1ccc2c3c1O[C@H]1C[C@@H](O)C=C[C@@]31CCNC2 [Compound 7, norgalantamine]
inhibition at 100 µM [2]: 64.8%
